Test results as given in US11690379B2, “Aqueous insecticidal composition and methods of use thereof” (priority 2020, dated 2023).

Experiments:
Assay type in all cases: in vivo
[1] = test system: silverleaf whitefly (Bemisia tabaci); assay: Foliar spray bioefficacy, first assay (3 applications); conditions: for # of Individuals per Leaf: Adults, 1st Appl. / # of Individuals per Leaf: Eggs, 1st Appl. / # of Individuals per Leaf: Nymphs, 1st Appl.: 7 days after first application; for # of Individuals per Leaf: Adults, 2nd Appl. / # of Individuals per Leaf: Eggs, 2nd Appl. / # of Individuals per Leaf: Nymphs, 2nd Appl.: 7 days after second application; for # of Individuals per Leaf: Adults, 3rd Appl. / # of Individuals per Leaf: Eggs, 3rd Appl. / # of Individuals per Leaf: Nymphs, 3rd Appl.: 8 days after third application
Procedure: (§1) A bioefficacy assay utilizing a foliar spray containing Spirotetramat and pyriproxyfen was conducted on the silverleaf whitefly (Bemisia tabaci) on tomatoes and bell peppers. […] Control was recorded 7 days after first application, 7 days after second application and 8 days after third application. Application rates and results of this assay can be found in Table 8, below.

[2] = test system: silverleaf whitefly (Bemisia tabaci); assay: Foliar spray bioefficacy, second assay (2 applications); conditions: recorded 8 days after second application
Procedure: as §1, with “below. […] Control was recorded 8 days after second application. Application rates and results of this assay can be found in Table 9, below.” for “below.”

[3] = test system: silverleaf whitefly (Bemisia tabaci); assay: Foliar spray bioefficacy, third assay (3 applications); conditions: for # of Individuals per Leaf: Adults, 1st Appl. / # of Individuals per Leaf: Eggs, 1st Appl. / # of Individuals per Leaf: Nymphs, 1st Appl.: 7 days after first application; for # of Individuals per Leaf: Adults, 2nd Appl. / # of Individuals per Leaf: Eggs, 2nd Appl. / # of Individuals per Leaf: Nymphs, 2nd Appl.: 7 days after second application; for # of Individuals per Leaf: Adults, 3rd Appl. / # of Individuals per Leaf: Eggs, 3rd Appl. / # of Individuals per Leaf: Nymphs, 3rd Appl.: 8 days after third application
Procedure: as §1, with “below. […] Control was recorded 7 days after first application, 7 days after second application and 8 days after third application. Application rates and results of this assay can be found in Table 10, below.” for “below.”

[4] = test system: Asian citrus psyllid (Diaphorina citri); assay: Foliar spray bioefficacy on Valencia oranges
Procedure: A bioefficacy assay utilizing a foliar spray containing Spirotetramat and pyriproxyfen was conducted on the Asian citrus psyllid (Diaphorina citri) on Valencia oranges. Spirotetramat and pyriproxyfen were applied concurrently and separately as a foliar spray. Application rates and results of this assay can be found in Table 12, below.

[5] = test system: vine mealybug (Pseudococcus maritimus); assay: Foliar spray bioefficacy on table grapes; conditions: Spirotetramat 131 g/HA
Procedure: A bioefficacy assay utilizing a foliar spray containing Spirotetramat and pyriproxyfen was conducted on the vine mealybug (Pseudococcus maritimus) on table grapes. Spirotetramat and pyriproxyfen were applied concurrently as a foliar spray and spirotetramat was also applied individually. Application rates and results of this assay can be found in Table 11, below.

CC(COc1ccc(Oc2ccccc2)cc1)Oc1ccccn1 (racemic) [Pyriproxyfen, 4-Phenoxyphenyl (R/S)-2-(2-pyridyloxy)propyl ether]
# of Individuals per Leaf: Adults, 1st Appl. ([1]; Pyriproxyfen 75.3 g/HA): 0.5 per Leaf | # of Individuals per Leaf: Eggs, 1st Appl. ([1]; Pyriproxyfen 75.3 g/HA): 0.5 per Leaf | # of Individuals per Leaf: Nymphs, 1st Appl. ([1]; Pyriproxyfen 75.3 g/HA): 0.5 per Leaf | # of Individuals per Leaf: Adults, 2nd Appl. ([1]; Pyriproxyfen 75.3 g/HA): 1.5 per Leaf | # of Individuals per Leaf: Eggs, 2nd Appl. ([1]; Pyriproxyfen 75.3 g/HA): 2.3 per Leaf | # of Individuals per Leaf: Nymphs, 2nd Appl. ([1]; Pyriproxyfen 75.3 g/HA): 0.8 per Leaf | # of Individuals per Leaf: Adults, 3rd Appl. ([1]; Pyriproxyfen 75.3 g/HA): 1.0 per Leaf | # of Individuals per Leaf: Eggs, 3rd Appl. ([1]; Pyriproxyfen 75.3 g/HA): 2.0 per Leaf | # of Individuals per Leaf: Nymphs, 3rd Appl. ([1]; Pyriproxyfen 75.3 g/HA): 0.8 per Leaf | # of Individuals per Leaf: Adults, 1st Appl. ([2]; Pyriproxyfen 75.3 g/HA): 1.6 per Leaf | # of Individuals per Leaf: Eggs, 1st Appl. ([2]; Pyriproxyfen 75.3 g/HA): 27.4 per Leaf | # of Individuals per Leaf: Nymphs, 1st Appl. ([2]; Pyriproxyfen 75.3 g/HA): 65.9 per Leaf | # of Individuals per Leaf: Adults, 1st Appl. ([3]; Pyriproxyfen 75.3 g/HA): 0.5 per Leaf | # of Individuals per Leaf: Eggs, 1st Appl. ([3]; Pyriproxyfen 75.3 g/HA): 0.5 per Leaf | # of Individuals per Leaf: Nymphs, 1st Appl. ([3]; Pyriproxyfen 75.3 g/HA): 0.5 per Leaf | # of Individuals per Leaf: Adults, 2nd Appl. ([3]; Pyriproxyfen 75.3 g/HA): 1.5 per Leaf | # of Individuals per Leaf: Eggs, 2nd Appl. ([3]; Pyriproxyfen 75.3 g/HA): 2.3 per Leaf | # of Individuals per Leaf: Nymphs, 2nd Appl. ([3]; Pyriproxyfen 75.3 g/HA): 0.8 per Leaf | # of Individuals per Leaf: Adults, 3rd Appl. ([3]; Pyriproxyfen 75.3 g/HA): 1.0 per Leaf | # of Individuals per Leaf: Eggs, 3rd Appl. ([3]; Pyriproxyfen 75.3 g/HA): 2.0 per Leaf | # of Individuals per Leaf: Nymphs, 3rd Appl. ([3]; Pyriproxyfen 75.3 g/HA): 0.8 per Leaf | # of Nymphs ([4]; Pyriproxyfen 127.9 g/HA): 14.1

CCOC(=O)OC1=C(c2cc(C)ccc2C)C(=O)N[C@]12CC[C@@H](OC)CC2 [Spirotetramat, cis-3-(2,5-dimethylphenyl)-8-methoxy-2-oxo-1-azaspiro[4.5]dec-3-en-4-ylethyl carbonate]
# of Individuals per Leaf: Adults, 1st Appl. ([1]; Spirotetramat 87.6 g/HA): 3.3 per Leaf | # of Individuals per Leaf: Eggs, 1st Appl. ([1]; Spirotetramat 87.6 g/HA): 6.5 per Leaf | # of Individuals per Leaf: Nymphs, 1st Appl. ([1]; Spirotetramat 87.6 g/HA): 17.8 per Leaf | # of Individuals per Leaf: Adults, 2nd Appl. ([1]; Spirotetramat 87.6 g/HA): 2.0 per Leaf | # of Individuals per Leaf: Eggs, 2nd Appl. ([1]; Spirotetramat 87.6 g/HA): 13.8 per Leaf | # of Individuals per Leaf: Nymphs, 2nd Appl. ([1]; Spirotetramat 87.6 g/HA): 30.5 per Leaf | # of Individuals per Leaf: Adults, 3rd Appl. ([1]; Spirotetramat 87.6 g/HA): 2.0 per Leaf | # of Individuals per Leaf: Eggs, 3rd Appl. ([1]; Spirotetramat 87.6 g/HA): 11.0 per Leaf | # of Individuals per Leaf: Nymphs, 3rd Appl. ([1]; Spirotetramat 87.6 g/HA): 16.8 per Leaf | # of Individuals per Leaf: Adults, 1st Appl. ([2]; Spirotetramat 87.6 g/HA): 2.6 per Leaf | # of Individuals per Leaf: Eggs, 1st Appl. ([2]; Spirotetramat 87.6 g/HA): 12.7 per Leaf | # of Individuals per Leaf: Nymphs, 1st Appl. ([2]; Spirotetramat 87.6 g/HA): 33.2 per Leaf | % bunches infested [5]: 6.8% | # of Individuals per Leaf: Adults, 1st Appl. ([3]; Spirotetramat 87.6 g/HA): 3.3 per Leaf | # of Individuals per Leaf: Eggs, 1st Appl. ([3]; Spirotetramat 87.6 g/HA): 6.5 per Leaf | # of Individuals per Leaf: Nymphs, 1st Appl. ([3]; Spirotetramat 87.6 g/HA): 17.8 per Leaf | # of Individuals per Leaf: Adults, 2nd Appl. ([3]; Spirotetramat 87.6 g/HA): 2.0 per Leaf | # of Individuals per Leaf: Eggs, 2nd Appl. ([3]; Spirotetramat 87.6 g/HA): 13.8 per Leaf | # of Individuals per Leaf: Nymphs, 2nd Appl. ([3]; Spirotetramat 87.6 g/HA): 30.5 per Leaf | # of Individuals per Leaf: Adults, 3rd Appl. ([3]; Spirotetramat 87.6 g/HA): 2.0 per Leaf | # of Individuals per Leaf: Eggs, 3rd Appl. ([3]; Spirotetramat 87.6 g/HA): 11.0 per Leaf | # of Individuals per Leaf: Nymphs, 3rd Appl. ([3]; Spirotetramat 87.6 g/HA): 16.8 per Leaf | # of Nymphs ([4]; Spirotetramat 163.7 g/HA): 8.6
